These results are taken from patent US7030114B1, “Compounds which inhibit leukocyte adhesion mediated by VLA-4” (Elan Pharmaceuticals, Inc., priority 1997, dated 2006).

The test system of this assay is Experimental Autoimmune (or Allergic) Encephalomyelitis (“EAE”). Description: In vivo evaluation: Experimental Autoimmune (or Allergic) Encephalomyelitis (EAE) model, motor impairment. Set-up: species or system rats or guinea pigs. Conditions: treatment from Day 8, bid for five days, SC, PO or IP.

`Cc1ccc(S(=O)(=O)N2CCC[C@@]2(C)C(=O)N[C@@H](Cc2ccc(OC(=O)N3CCN(C)CC3)cc2)C(=O)OC(C)(C)C)cc1` [Example 47, N-(toluene-4-sulfonyl)-α-methylprolyl-L-4-(4-methylpiperazin-1-carbonyloxy)phenylalanine tert-butyl ester]: the “activity in EAE model (delayed the onset of symptoms, e.g., clinical scores no greater than 2 or slowed body weight loss as compared to the control)” value is on record as “active”.
